We go through two molecules from patent publication US7326721B2 (Hypnion, Inc., priority 2003, dated 2008).

One series has as its target Histamine, H2 (Homo sapiens, UniProt P25021). The series can be described thus: Table 12 panel: Histamine, H2. Conditions: 1.0E−6, average N=2, read-out: percentage inhibition of specific binding. The text has this:
(§1) The percentage inhibition (average; N=2) for these receptors is shown below in Table 12.
(§2) Values in Table 12 are expressed as percentage inhibition of specific binding, and these values represent the average of replicate tubes at each of the concentrations tested.

The test system of series [1] is Glutamic Acid Decarboxylase. The series can be described thus: Table 12 panel: Glutamic Acid Decarboxylase. It counts as biochemical. The note with it: 1.0E−6, average N=2.
From the text: as §1, §2

Series [2] concerns Corticotropin Releasing Factor, Non-selective. The series can be described thus: Table 12 panel: CRF. It counts as binding. The note with it: 1.0E−6, average N=2.
From the text: as §1, §2

The target of series [3] is Cholecystokinin, CCK1 (CCKA) (Homo sapiens, UniProt P32238). In words: Table 12 panel: CCK1. Conditions: 1.0E−6, average N=2, read-out: percentage inhibition of specific binding.
Cholecystokinin, CCK1 (CCKA), sequence (P32238 whole entry): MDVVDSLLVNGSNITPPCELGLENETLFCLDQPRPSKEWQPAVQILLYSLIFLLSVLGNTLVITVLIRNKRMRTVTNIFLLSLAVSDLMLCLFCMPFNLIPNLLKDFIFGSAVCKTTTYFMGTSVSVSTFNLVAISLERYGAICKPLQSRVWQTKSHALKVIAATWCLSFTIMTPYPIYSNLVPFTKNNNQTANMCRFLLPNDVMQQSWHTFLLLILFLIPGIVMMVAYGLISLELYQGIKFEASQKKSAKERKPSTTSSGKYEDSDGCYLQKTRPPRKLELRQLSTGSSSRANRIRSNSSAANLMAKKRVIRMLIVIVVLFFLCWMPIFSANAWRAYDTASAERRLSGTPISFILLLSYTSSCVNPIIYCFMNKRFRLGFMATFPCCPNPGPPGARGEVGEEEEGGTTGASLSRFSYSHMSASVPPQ
From the text: as §1, §2

The next series has as its target Angiotensin II, AT1 (h) (Homo sapiens, UniProt P30556). In words: Table 12 panel: Angiotensin II, AT1. The note with it: 1.0E−6, average N=2, read-out: percentage inhibition of specific binding.
From the text: as §1, §2

Another series concerns Opioid, Non-selective. In words: Table 12 panel: Opioid. It counts as binding. The note with it: 1.0E−6, average N=2.
From the text: as §1, §2

A short description of series [4]: Urinary excretion in animal species. Conditions: animal species administered HY2901. It counts as in vivo.
The test system of another series is Beagles. The series can be described thus: Acute dog study (toxicity and MTD, escalating oral doses). It counts as in vivo.
Assay in series [5]: as above
It counts as in vivo. The note with it: male, Beagle, in vivo; dog, oral gavage.

Series [6] is described as follows: Plasma pharmacokinetics in rats. It counts as in vivo, rat. The text has this: The following pharmacokinetic parameters are computed from the individual plasma concentrations of the modified antihistamine compound using a noncompartmental approach and appropriate validated pharmacokinetic software (e.g., WinNonlin Professional). Concentration values reported as BLQ are set to zero. If concentration data are available, interim calculations are done (non-QC.d data) between periods if possible.
Dose proportionality following study medication is explored by analyzing natural log-transformed pharmacokinetic variables AUC(0-t), AUC(0-inf), and Cmax with a linear model including the natural log-transformed dose as covariates. Dose proportionality is concluded if the 95% confidence interval for the slope of the covariate includes the value of 1. Dose linearity for AUC(0-t), AUC(0-inf), and Cmax is also explored by a linear model. See, e.g., Gibaldi and Perrier, Pharmacokinetics, Second Ed., Marcel Dekker: New York, N.Y. (1982). Nominal sample collection times were used in calculations, except where actual sampling times fell outside the protocol-specified acceptable time ranges. The following parameters were estimated: • Cmax Maximum plasma concentration. • Tmax Time to maximum concentration. • Cmax and Tmax were reported directly from the concentration-time data. • AUC0-T Area under the plasma concentration-time curve from time […] to the last time point with measurable concentrations, estimated bylinear trapezoidal rule. • AUC0-00 Area under the plasma concentration-time curve extrapolated to infinity, calculated using the formula: AUC0-00=AUC0-1+C0/λ0 • Where Ct is the last measurable concentration in plasma and λz is the terminal phase elimination rate constant estimated using log-linear regression during the terminal elimination phase. The number of points used in λz calculation was determined by visual inspection of the data describing the terminal phase. At lest the last three time points with measurable values were used in λz calculation. […]

A further series relates to human hepatocytes. The series can be described thus: In vitro metabolism in human (cryopreserved) hepatocytes. It counts as in vitro ADME. Conditions: human hepatocyte cultures. How it is done: Metabolism of test articles in monkey and human cryopreserved hepatocytes is assayed as follows:
Sample is diluted with DMSO, to prepare 100 μM and 10 μM stocks. 0.1% formic acid in acetonitrile is prepared by the addition of 1 mL formic acid per 1 L acetonitrile (store RT for 3 months). 10 minute, 60 and 120 minute 96 well quenching plates are prepared with 150 μL acetonitrile+0.1% formic acid in each well. Store on ice or refrigerated.
Next, hepatocytes are thawed and 100 μL of cell suspension is placed into a microfuge tube with 100 μL 0.4% Trypan Blue solution and gently mix by inversion. A small amount of the stained cell suspension (approximately 15 μL) is placed into a clean hemacytometer with a coverslip. The hemacytometer is placed onto the stage of the microscope and the focus and power are adjusted until a single counting square fills the field. The number of cells in the four outside corner subdivided squares of the hemacytometer are counted. Viable cells are opalescent, round, and pale with a darker outline. Non-viable cells are dark, opaque blue.
198 μL of hepatocytes are transferred to relevant wells on dosing plate.
Plates are preincubated for at least 15 min. […]
(§3) Cytochrome P450 inhibition was studied with HY2901 in vitro. […] In addition, the in vitro rate of metabolism in rat, dog, monkey, and human hepatocyte cultures was determined for HY2901.

The nature of series [7]: Protein binding in human plasma. It counts as in vitro ADME. How it is done: HY2901 was administered to rats, dogs, and cynomolgus monkeys at a dose of 3 mg/kg orally and intravenously. Plasma samples were collected from all species for pharmacokinetic analysis. […] HY2901 is 75% protein bound in rat plasma and 60% protein bound in human plasma.
A further series addresses T1, CYP 1A2 (Homo sapiens, UniProt P05177).
T1 construct: in a commercially available human microsomal preparation; purchased; host or cells: human microsomal preparation
The series can be described thus: Cytochrome P450 inhibition, human microsomal preparation: CYP 1A2. It counts as in vitro ADME. How it is done:
as §3

T1 sequence (P05177 whole entry): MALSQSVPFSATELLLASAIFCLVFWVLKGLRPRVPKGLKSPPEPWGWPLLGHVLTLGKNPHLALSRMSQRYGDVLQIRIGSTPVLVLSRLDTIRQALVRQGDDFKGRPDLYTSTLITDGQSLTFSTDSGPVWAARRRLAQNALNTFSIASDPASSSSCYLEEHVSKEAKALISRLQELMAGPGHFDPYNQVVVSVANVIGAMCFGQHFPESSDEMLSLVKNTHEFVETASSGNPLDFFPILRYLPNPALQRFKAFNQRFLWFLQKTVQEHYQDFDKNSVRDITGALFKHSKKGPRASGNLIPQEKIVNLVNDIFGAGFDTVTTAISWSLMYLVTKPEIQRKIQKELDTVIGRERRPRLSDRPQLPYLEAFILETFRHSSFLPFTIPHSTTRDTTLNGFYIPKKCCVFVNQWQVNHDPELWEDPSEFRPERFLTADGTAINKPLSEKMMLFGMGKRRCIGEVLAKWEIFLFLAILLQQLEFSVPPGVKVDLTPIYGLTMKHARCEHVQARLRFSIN
Angiotensin II, AT1 (h), sequence (P30556 whole entry): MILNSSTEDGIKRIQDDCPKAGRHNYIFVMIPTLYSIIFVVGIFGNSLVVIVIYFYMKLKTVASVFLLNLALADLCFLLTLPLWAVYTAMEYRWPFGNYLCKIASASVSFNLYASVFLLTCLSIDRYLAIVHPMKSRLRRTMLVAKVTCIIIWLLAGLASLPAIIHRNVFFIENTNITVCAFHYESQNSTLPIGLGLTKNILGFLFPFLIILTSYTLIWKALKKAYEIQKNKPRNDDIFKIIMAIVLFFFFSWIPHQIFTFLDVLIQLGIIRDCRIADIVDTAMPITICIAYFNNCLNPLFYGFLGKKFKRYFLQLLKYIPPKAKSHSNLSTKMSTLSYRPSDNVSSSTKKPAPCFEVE
Histamine, H2, sequence (P25021 whole entry): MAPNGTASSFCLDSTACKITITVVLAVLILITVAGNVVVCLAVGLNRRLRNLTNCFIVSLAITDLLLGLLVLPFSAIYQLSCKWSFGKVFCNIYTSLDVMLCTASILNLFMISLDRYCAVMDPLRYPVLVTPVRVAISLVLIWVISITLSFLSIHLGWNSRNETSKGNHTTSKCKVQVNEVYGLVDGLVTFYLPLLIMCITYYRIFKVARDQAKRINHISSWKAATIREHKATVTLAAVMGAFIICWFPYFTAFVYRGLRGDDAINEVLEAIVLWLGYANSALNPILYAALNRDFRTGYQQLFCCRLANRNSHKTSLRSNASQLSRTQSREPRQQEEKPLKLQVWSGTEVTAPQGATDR

On to `CC(CC(=O)O)N1CCC(=C2c3ccc(F)cc3COc3ccccc32)CC1` (stereo not drawn) [Compound 37], for which the inhibition at 1 µM at Histamine, H2 stood at 0.8%; in [3], 8.92%; on Angiotensin II, AT1 (h), 12%. In series [1], the percentage inhibition is listed as −4.76%. Besides, the “percentage inhibition of specific binding” value is reported as 4.31% in series [2] and −9.30% in the series with Opioid, Non-selective.

Consider `CC(C)(CN1CCC(=C2c3ccc(F)cc3COc3ccccc32)CC1)C(=O)O` [Compound 49a], for which, in series [4], the “unchanged drug and metabolites in urine” value is recorded as “has been found in the urine”. The “clinical signs of toxicity” value is “No clinical signs of toxicity” in the series on Beagles (25 mg/kg oral gavage); “body tremors, mild to moderate ataxia, excessive salivation and hypoactivity” in the series with Beagles (40 mg/kg on Day 5); “Body tremors, mild to severe ataxia, and hypoactivity” in the series with Beagles (50 mg/kg oral gavage); “Tremors (entire body, hind limbs, and/or head), mild to moderate ataxia, hypoactivity” with Beagles (75 mg/kg oral gavage). In addition, the blood pressure result with Beagles (40 mg/kg) was “No significant changes”. For the same molecule, the heart rates entry in the series on Beagles (40 mg/kg) is given as “unaffected”. In addition, the body weight entry in the series with Beagles (escalating doses 25-75 mg/kg, 40 mg/kg Day 5) was “minimal effect on body weight”. In [5], this molecule displayed an MTD at 5 days of 75 mg/kg. Further, the half-life in series [6] (plasma, rat, 3 mg/kg) was 66 min. Moreover, in series [6] (plasma, rat, 3 mg/kg, after oral administration), the Tmax worked out at 15 min. Further, the Peak plasma levels result in series [6] (rats, most efficacious dose of 3 mg/kg in the sleep assay) was “less than 1.5 mM”. Also, the in vitro metabolism entry in the series with human hepatocytes is “little metabolism was observed”. The protein bound in series [7] is listed as 60%. For the same molecule, the “inhibition of CYP 1A2 activity” value against CYP 1A2 is recorded as “did not inhibit”.
